{"source": "patent US9738634B2", "about": "“Heterocyclic amide compound and herbicide” (SYNGENTA PARTICIPATIONS AG, priority 2013, dated 2017)", "type_in_all_cases": "in vivo", "key": {"[1]": {"system": "transplanted rice", "test": "Test Example 1: preemergent weed treatment in the submerged state, effect on crop; a: transplanted rice", "details": "treatment dosage 252 g/ha", "summary_of_the_method": "(§1)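 Submerged pre-emergence treatment, water-surface application of compound emulsion at g/ha dosages; 4 cm flooded alluvial soil, weeds sown and 2.5-leaf rice transplanted same day. Rated after 3 weeks, greenhouse.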"}, "[2]": {"system": "Indian mallow", "test": "Test Example 4: weedkilling efficacy by foliar treatment; K: Indian mallow", "details": "treatment dosage 315 g/ha", "summary_of_the_method": "(§2)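 Seeds are spot-sown into sterilized diluvial soil and covered with about 1.5 cm of soil. After 14 days' greenhouse growth at 25 to 30° C, plants are sprayed on stems and leaves with diluted emulsion at the stated g/ha rate, then scored at 3 weeks.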"}, "[3]": {"system": "directly sown rice", "test": "Test Example 4: foliar treatment, effect on crop; b: directly sown rice", "details": "treatment dosage 315 g/ha", "summary_of_the_method": "as §2"}, "[4]": {"system": "bulrush", "test": "Test Example 2: weedkilling efficacy, growth period weed treatment in the submerged state; B: bulrush", "details": "treatment dosage 252 g/ha", "summary_of_the_method": "(§3)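 Seedlings at 1-2 leaves in 4 cm-deep submerged alluvial soil received emulsion formulations on the water surface, dosed per hectare; effects were judged 3 weeks on.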"}, "[5]": {"system": "barnyard grass", "test": "Test Example 1: weedkilling efficacy, preemergent weed treatment in the submerged state; A: barnyard grass", "details": "treatment dosage 252 g/ha", "summary_of_the_method": "as §1"}, "[6]": {"system": "chickweed", "test": "Test Example 4: weedkilling efficacy by foliar treatment; N: chickweed", "details": "treatment dosage 315 g/ha", "summary_of_the_method": "as §2"}, "[7]": {"system": "wheat", "test": "Test Example 4: foliar treatment, effect on crop; e: wheat", "details": "treatment dosage 315 g/ha", "summary_of_the_method": "as §2"}, "[8]": {"system": "green foxtail", "test": "Test Example 4: weedkilling efficacy by foliar treatment; E: green foxtail", "details": "treatment dosage 315 g/ha", "summary_of_the_method": "as §2"}, "[9]": {"system": "black-grass", "test": "Test Example 4: weedkilling efficacy by foliar treatment; H: black-grass", "details": "treatment dosage 315 g/ha", "summary_of_the_method": "as §2"}, "[10]": {"system": "birds-eye speedwell", "test": "Test Example 4: weedkilling efficacy by foliar treatment; p: birds-eye speedwell", "details": "treatment dosage 315 g/ha", "summary_of_the_method": "as §2"}, "[11]": {"system": "oval-leafed pondweed", "test": "Test Example 2: weedkilling efficacy, growth period weed treatment in the submerged state; C: oval-leafed pondweed", "details": "treatment dosage 252 g/ha", "summary_of_the_method": "as §3"}, "[12]": {"system": "beet", "test": "Test Example 4: foliar treatment, effect on crop; f: beet", "details": "treatment dosage 315 g/ha", "summary_of_the_method": "as §2"}, "[13]": {"system": "chickweed", "test": "Test Example 3: weedkilling efficacy through soil treatment; N: chickweed", "details": "treatment dosage 315 g/ha", "summary_of_the_method": "(§4)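 Crop and weed responses were judged three weeks after a uniform surface spray of the water-diluted emulsion at the given g/ha rate. Seeds sat beneath about 1.5 cm of sterilized diluvial soil, and boxes stood in a greenhouse at 25 to 30° C.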"}, "[14]": {"system": "beet", "test": "Test Example 3: soil treatment, effect on crop; f: beet", "details": "treatment dosage 315 g/ha", "summary_of_the_method": "as §4"}, "[15]": {"system": "black-grass", "test": "Test Example 3: weedkilling efficacy through soil treatment; H: black-grass", "details": "treatment dosage 315 g/ha", "summary_of_the_method": "as §4"}, "[16]": {"system": "wheat", "test": "Test Example 3: soil treatment, effect on crop; e: wheat", "details": "treatment dosage 315 g/ha", "summary_of_the_method": "as §4"}, "[17]": {"system": "Italian ryegrass", "test": "Test Example 3: weedkilling efficacy through soil treatment; I: Italian ryegrass", "details": "treatment dosage 315 g/ha", "summary_of_the_method": "as §4"}, "[18]": {"system": "corn", "test": "Test Example 3: soil treatment, effect on crop; c: corn", "details": "treatment dosage 315 g/ha", "summary_of_the_method": "as §4"}, "[19]": {"system": "oval-leafed pondweed", "test": "Test Example 1: weedkilling efficacy, preemergent weed treatment in the submerged state; C: oval-leafed pondweed", "details": "treatment dosage 252 g/ha", "summary_of_the_method": "as §1"}, "[20]": {"system": "directly sown rice", "test": "Test Example 3: soil treatment, effect on crop; b: directly sown rice", "details": "treatment dosage 315 g/ha", "summary_of_the_method": "as §4"}, "[21]": {"system": "soybean", "test": "Test Example 4: foliar treatment, effect on crop; d: soybean", "details": "treatment dosage 315 g/ha", "summary_of_the_method": "as §2"}, "[22]": {"system": "soybean", "test": "Test Example 3: soil treatment, effect on crop; d: soybean", "details": "treatment dosage 315 g/ha", "summary_of_the_method": "as §4"}, "[23]": {"system": "corn", "test": "Test Example 4: foliar treatment, effect on crop; c: corn", "details": "treatment dosage 315 g/ha", "summary_of_the_method": "as §2"}, "[24]": {"system": "fig-leafed goosefoot", "test": "Test Example 3: weedkilling efficacy through soil treatment; M: fig-leafed goosefoot", "details": "treatment dosage 315 g/ha", "summary_of_the_method": "as §4"}, "[25]": {"system": "Indian mallow", "test": "Test Example 3: weedkilling efficacy through soil treatment; K: Indian mallow", "details": "treatment dosage 315 g/ha", "summary_of_the_method": "as §4"}, "[26]": {"system": "redroot pigweed", "test": "Test Example 3: weedkilling efficacy through soil treatment; L: redroot pigweed", "details": "treatment dosage 315 g/ha", "summary_of_the_method": "as §4"}, "[27]": {"system": "Italian ryegrass", "test": "Test Example 4: weedkilling efficacy by foliar treatment; I: Italian ryegrass", "details": "treatment dosage 315 g/ha", "summary_of_the_method": "as §2"}, "[28]": {"system": "barnyard grass", "test": "Test Example 2: weedkilling efficacy, growth period weed treatment in the submerged state; A: barnyard grass", "details": "treatment dosage 252 g/ha", "summary_of_the_method": "as §3"}, "[29]": {"system": "bulrush", "test": "Test Example 1: weedkilling efficacy, preemergent weed treatment in the submerged state; B: bulrush", "details": "treatment dosage 252 g/ha", "summary_of_the_method": "as §1"}, "[30]": {"system": "redroot pigweed", "test": "Test Example 4: weedkilling efficacy by foliar treatment; L: redroot pigweed", "details": "treatment dosage 315 g/ha", "summary_of_the_method": "as §2"}, "[31]": {"system": "birds-eye speedwell", "test": "Test Example 3: weedkilling efficacy through soil treatment; p: birds-eye speedwell", "details": "treatment dosage 315 g/ha", "summary_of_the_method": "as §4"}, "[32]": {"system": "catchweed", "test": "Test Example 4: weedkilling efficacy by foliar treatment; O: catchweed", "details": "treatment dosage 315 g/ha", "summary_of_the_method": "as §2"}, "[33]": {"system": "fig-leafed goosefoot", "test": "Test Example 4: weedkilling efficacy by foliar treatment; M: fig-leafed goosefoot", "details": "treatment dosage 315 g/ha", "summary_of_the_method": "as §2"}, "[34]": {"system": "green foxtail", "test": "Test Example 3: weedkilling efficacy through soil treatment; E: green foxtail", "details": "treatment dosage 315 g/ha", "summary_of_the_method": "as §4"}, "[35]": {"system": "crabgrass", "test": "Test Example 3: weedkilling efficacy through soil treatment; D: crabgrass", "details": "treatment dosage 315 g/ha", "summary_of_the_method": "as §4"}, "[36]": {"system": "crabgrass", "test": "Test Example 4: weedkilling efficacy by foliar treatment; D: crabgrass", "details": "treatment dosage 315 g/ha", "summary_of_the_method": "as §2"}}}
{"smiles": "CC1=C(c2cccnc2F)C(=O)N(C(C)(C)C(=O)Nc2cccc(Cl)n2)CO1", "note": "[B-2-08]", "values": [{"measurement": "a (transplanted rice) effect on crop grade", "setting": "[1]", "result": "0 (weed kill ratio 5% or less (practically no effect))"}, {"measurement": "K (Indian mallow) weedkilling efficacy grade", "setting": "[2]", "result": "4 (weed kill ratio 70% or more, less than 90%)"}, {"measurement": "b (directly sown rice) effect on crop grade", "setting": "[3]", "result": "4 (weed kill ratio 70% or more, less than 90%)"}, {"measurement": "B (bulrush) weedkilling efficacy grade", "setting": "[4]", "result": "5 (weed kill ratio 90% or more, (practically complete withering))"}, {"measurement": "A (barnyard grass) weedkilling efficacy grade", "setting": "[5]", "result": "5 (weed kill ratio 90% or more, (practically complete withering))"}, {"measurement": "N (chickweed) weedkilling efficacy grade", "setting": "[6]", "result": "4 (weed kill ratio 70% or more, less than 90%)"}, {"measurement": "e (wheat) effect on crop grade", "setting": "[7]", "result": "2 (weed kill ratio 20% or more, less than 40%)"}, {"measurement": "E (green foxtail) weedkilling efficacy grade", "setting": "[8]", "result": "5 (weed kill ratio 90% or more, (practically complete withering))"}, {"measurement": "H (black-grass) weedkilling efficacy grade", "setting": "[9]", "result": "5 (weed kill ratio 90% or more, (practically complete withering))"}, {"measurement": "P (birds-eye speedwell) weedkilling efficacy grade", "setting": "[10]", "result": "4 (weed kill ratio 70% or more, less than 90%)"}, {"measurement": "C (oval-leafed pondweed) weedkilling efficacy grade", "setting": "[11]", "result": "5 (weed kill ratio 90% or more, (practically complete withering))"}, {"measurement": "f (beet) effect on crop grade", "setting": "[12]", "result": "5 (weed kill ratio 90% or more, (practically complete withering))"}, {"measurement": "N (chickweed) weedkilling efficacy grade", "setting": "[13]", "result": "3 (weed kill ratio 40% or more, less than 70%)"}, {"measurement": "f (beet) effect on crop grade", "setting": "[14]", "result": "1 (weed kill ratio 5% or more, less than 20%)"}, {"measurement": "H (black-grass) weedkilling efficacy grade", "setting": "[15]", "result": "5 (weed kill ratio 90% or more, (practically complete withering))"}, {"measurement": "e (wheat) effect on crop grade", "setting": "[16]", "result": "3 (weed kill ratio 40% or more, less than 70%)"}, {"measurement": "I (Italian ryegrass) weedkilling efficacy grade", "setting": "[17]", "result": "5 (weed kill ratio 90% or more, (practically complete withering))"}, {"measurement": "c (corn) effect on crop grade", "setting": "[18]", "result": "0 (weed kill ratio 5% or less (practically no effect))"}, {"measurement": "C (oval-leafed pondweed) weedkilling efficacy grade", "setting": "[19]", "result": "5 (weed kill ratio 90% or more, (practically complete withering))"}, {"measurement": "b (directly sown rice) effect on crop grade", "setting": "[20]", "result": "5 (weed kill ratio 90% or more, (practically complete withering))"}, {"measurement": "d (soybean) effect on crop grade", "setting": "[21]", "result": "4 (weed kill ratio 70% or more, less than 90%)"}, {"measurement": "d (soybean) effect on crop grade", "setting": "[22]", "result": "0 (weed kill ratio 5% or less (practically no effect))"}, {"measurement": "c (corn) effect on crop grade", "setting": "[23]", "result": "0 (weed kill ratio 5% or less (practically no effect))"}, {"measurement": "M (fig-leafed goosefoot) weedkilling efficacy grade", "setting": "[24]", "result": "4 (weed kill ratio 70% or more, less than 90%)"}, {"measurement": "K (Indian mallow) weedkilling efficacy grade", "setting": "[25]", "result": "4 (weed kill ratio 70% or more, less than 90%)"}, {"measurement": "L (redroot pigweed) weedkilling efficacy grade", "setting": "[26]", "result": "4 (weed kill ratio 70% or more, less than 90%)"}, {"measurement": "I (Italian ryegrass) weedkilling efficacy grade", "setting": "[27]", "result": "5 (weed kill ratio 90% or more, (practically complete withering))"}, {"measurement": "A (barnyard grass) weedkilling efficacy grade", "setting": "[28]", "result": "5 (weed kill ratio 90% or more, (practically complete withering))"}, {"measurement": "B (bulrush) weedkilling efficacy grade", "setting": "[29]", "result": "5 (weed kill ratio 90% or more, (practically complete withering))"}, {"measurement": "L (redroot pigweed) weedkilling efficacy grade", "setting": "[30]", "result": "4 (weed kill ratio 70% or more, less than 90%)"}, {"measurement": "P (birds-eye speedwell) weedkilling efficacy grade", "setting": "[31]", "result": "4 (weed kill ratio 70% or more, less than 90%)"}, {"measurement": "O (catchweed) weedkilling efficacy grade", "setting": "[32]", "result": "3 (weed kill ratio 40% or more, less than 70%)"}, {"measurement": "M (fig-leafed goosefoot) weedkilling efficacy grade", "setting": "[33]", "result": "4 (weed kill ratio 70% or more, less than 90%)"}, {"measurement": "E (green foxtail) weedkilling efficacy grade", "setting": "[34]", "result": "5 (weed kill ratio 90% or more, (practically complete withering))"}, {"measurement": "D (crabgrass) weedkilling efficacy grade", "setting": "[35]", "result": "5 (weed kill ratio 90% or more, (practically complete withering))"}, {"measurement": "D (crabgrass) weedkilling efficacy grade", "setting": "[36]", "result": "5 (weed kill ratio 90% or more, (practically complete withering))"}]}
